# Test results from PubChem BioAssay AID1963984 (Molecular Pharmacology Branch, DTP, NCI, 2024).
# Test system: 233499-124-R-J3-PDC spheroids with HUVEC/MSC, viability
# Experiment: Anticancer human tumor 233499-124-R-J3-PDC patient-derived colon adenocarcinoma cell line growth inhibition [PI3K]
# Conditions: for IC50: curve of first compound; for viability, T/C: stronger effect = lower value
# Outline: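 Agents were dosed from a top concentration near clinical Cmax (otherwise 10 microM) in half-log decrements, alone or combined with PI3K inhibitors. The spheroids contain tumor cells plus endothelial (HUVEC) and MSC stroma; viability is measured.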
# [1] = second compound 0.0316 µM, first compound 0.0316 µM
# [2] = second compound 0.0316 µM, first compound 0.1 µM
# [3] = second compound 0.1 µM, first compound 0.0316 µM
# [4] = second compound 0.1 µM, first compound 0.1 µM
# [5] = second compound 0.316 µM, first compound 0.0316 µM
# [6] = second compound 0.316 µM, first compound 0.1 µM
# [7] = second compound 1 µM, first compound 0.0316 µM
# [8] = second compound 1 µM, first compound 0.1 µM
# [9] = second compound 3.16 µM, first compound 0.0316 µM
# [10] = second compound 3.16 µM, first compound 0.1 µM
# [11] = second compound 10 µM, first compound 0.0316 µM
# [12] = second compound 10 µM, first compound 0.1 µM
# 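Note: spheroids exposed to agents for seven days before readout.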
# 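Throughout, for viability, T/C: percent viability relative to DMSO vehicle control taken as 100%.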
compound,measurement,setting,value
CC(=O)c1c(C)c2cnc(Nc3ccc(N4CCNCC4)cn3)nc2n(C2CCCC2)c1=O + CC(Nc1ncnc2nc[nH]c12)c1cc2cccc(Cl)c2c(=O)n1-c1ccccc1,IC50,second compound 0.0316 µM,> 100 nM
same,IC50,second compound 0.1 µM,> 100 nM
same,IC50,second compound 0.316 µM,> 100 nM
same,IC50,second compound 1 µM,> 100 nM
same,IC50,second compound 3.16 µM,> 100 nM
same,IC50,second compound 10 µM,> 100 nM
same,"viability, T/C","second compound 0.0316 µM, first compound 0.000316 µM",99%
same,"viability, T/C","second compound 0.0316 µM, first compound 0.001 µM",83.9%
same,"viability, T/C","second compound 0.0316 µM, first compound 0.00316 µM",93.1%
same,"viability, T/C","second compound 0.0316 µM, first compound 0.01 µM",99.5%
same,"viability, T/C",[1],101%
same,"viability, T/C",[2],89%
same,"viability, T/C","second compound 0.1 µM, first compound 0.000316 µM",92.7%
same,"viability, T/C","second compound 0.1 µM, first compound 0.001 µM",99.2%
same,"viability, T/C","second compound 0.1 µM, first compound 0.00316 µM",93.9%
same,"viability, T/C","second compound 0.1 µM, first compound 0.01 µM",115%
same,"viability, T/C",[3],101%
same,"viability, T/C",[4],82.6%
same,"viability, T/C","second compound 0.316 µM, first compound 0.000316 µM",102%
same,"viability, T/C","second compound 0.316 µM, first compound 0.001 µM",91.2%
same,"viability, T/C","second compound 0.316 µM, first compound 0.00316 µM",93%
same,"viability, T/C","second compound 0.316 µM, first compound 0.01 µM",92.2%
same,"viability, T/C",[5],86%
same,"viability, T/C",[6],77.2%
same,"viability, T/C","second compound 1 µM, first compound 0.000316 µM",100%
same,"viability, T/C","second compound 1 µM, first compound 0.001 µM",86.9%
same,"viability, T/C","second compound 1 µM, first compound 0.00316 µM",78.1%
same,"viability, T/C","second compound 1 µM, first compound 0.01 µM",71.5%
same,"viability, T/C",[7],76.1%
same,"viability, T/C",[8],81.8%
same,"viability, T/C","second compound 3.16 µM, first compound 0.000316 µM",106%
same,"viability, T/C","second compound 3.16 µM, first compound 0.001 µM",105%
same,"viability, T/C","second compound 3.16 µM, first compound 0.00316 µM",94.2%
same,"viability, T/C","second compound 3.16 µM, first compound 0.01 µM",83.8%
same,"viability, T/C",[9],77.2%
same,"viability, T/C",[10],53.4%
same,"viability, T/C","second compound 10 µM, first compound 0.000316 µM",86.3%
same,"viability, T/C","second compound 10 µM, first compound 0.001 µM",103%
same,"viability, T/C","second compound 10 µM, first compound 0.00316 µM",92.9%
same,"viability, T/C","second compound 10 µM, first compound 0.01 µM",86.2%
same,"viability, T/C",[11],82.4%
same,"viability, T/C",[12],68.7%
CNC(=O)c1ccc(N2C(=S)N(c3ccc(C#N)c(C(F)(F)F)c3)C(=O)C2(C)C)cc1F + CC(Nc1ncnc2nc[nH]c12)c1cc2cccc(Cl)c2c(=O)n1-c1ccccc1,IC50,second compound 0.0316 µM,> 10000 nM
same,IC50,second compound 0.1 µM,> 10000 nM
same,IC50,second compound 0.316 µM,> 10000 nM
same,IC50,second compound 1 µM,> 10000 nM
same,IC50,second compound 3.16 µM,> 10000 nM
same,IC50,second compound 10 µM,> 10000 nM
same,"viability, T/C",[1],106%
same,"viability, T/C",[2],92.8%
same,"viability, T/C","second compound 0.0316 µM, first compound 0.316 µM",88.1%
same,"viability, T/C","second compound 0.0316 µM, first compound 1 µM",94.5%
same,"viability, T/C","second compound 0.0316 µM, first compound 3.16 µM",79.7%
same,"viability, T/C","second compound 0.0316 µM, first compound 10 µM",63.6%
same,"viability, T/C",[3],101%
same,"viability, T/C",[4],81%
same,"viability, T/C","second compound 0.1 µM, first compound 0.316 µM",96.5%
same,"viability, T/C","second compound 0.1 µM, first compound 1 µM",76.3%
same,"viability, T/C","second compound 0.1 µM, first compound 3.16 µM",80.8%
same,"viability, T/C","second compound 0.1 µM, first compound 10 µM",83.9%
same,"viability, T/C",[5],102%
same,"viability, T/C",[6],90.1%
same,"viability, T/C","second compound 0.316 µM, first compound 0.316 µM",92.6%
same,"viability, T/C","second compound 0.316 µM, first compound 1 µM",80.5%
same,"viability, T/C","second compound 0.316 µM, first compound 3.16 µM",71.7%
same,"viability, T/C","second compound 0.316 µM, first compound 10 µM",52.6%
same,"viability, T/C",[7],81.5%
same,"viability, T/C",[8],95.7%
same,"viability, T/C","second compound 1 µM, first compound 0.316 µM",96.5%
same,"viability, T/C","second compound 1 µM, first compound 1 µM",77.4%
same,"viability, T/C","second compound 1 µM, first compound 3.16 µM",78.2%
same,"viability, T/C","second compound 1 µM, first compound 10 µM",68.3%
same,"viability, T/C",[9],107%
same,"viability, T/C",[10],76.6%
same,"viability, T/C","second compound 3.16 µM, first compound 0.316 µM",104%
same,"viability, T/C","second compound 3.16 µM, first compound 1 µM",87.6%
same,"viability, T/C","second compound 3.16 µM, first compound 3.16 µM",80.8%
same,"viability, T/C","second compound 3.16 µM, first compound 10 µM",68.4%
same,"viability, T/C",[11],85.7%
same,"viability, T/C",[12],97.3%
same,"viability, T/C","second compound 10 µM, first compound 0.316 µM",93.3%
same,"viability, T/C","second compound 10 µM, first compound 1 µM",95.6%
same,"viability, T/C","second compound 10 µM, first compound 3.16 µM",60.9%
same,"viability, T/C","second compound 10 µM, first compound 10 µM",58.3%
Cn1cnc2c(F)c(Nc3ccc(Br)cc3Cl)c(C(=O)NOCCO)cc21 + CC(Nc1ncnc2nc[nH]c12)c1cc2cccc(Cl)c2c(=O)n1-c1ccccc1,IC50,second compound 0.0316 µM,600 nM
same,IC50,second compound 0.1 µM,603 nM
same,IC50,second compound 0.316 µM,511 nM
same,IC50,second compound 1 µM,281 nM
same,IC50,second compound 3.16 µM,275 nM
same,IC50,second compound 10 µM,455 nM
same,"viability, T/C","second compound 0.0316 µM, first compound 0.00949 µM",68.9%
same,"viability, T/C","second compound 0.0316 µM, first compound 0.03 µM",69.2%
same,"viability, T/C","second compound 0.0316 µM, first compound 0.0949 µM",66%
same,"viability, T/C","second compound 0.0316 µM, first compound 0.3 µM",70.9%
same,"viability, T/C","second compound 0.0316 µM, first compound 0.949 µM",37.6%
same,"viability, T/C","second compound 0.0316 µM, first compound 3 µM",28.6%
same,"viability, T/C","second compound 0.1 µM, first compound 0.00949 µM",83.8%
same,"viability, T/C","second compound 0.1 µM, first compound 0.03 µM",73.6%
same,"viability, T/C","second compound 0.1 µM, first compound 0.0949 µM",64.9%
same,"viability, T/C","second compound 0.1 µM, first compound 0.3 µM",67.6%
same,"viability, T/C","second compound 0.1 µM, first compound 0.949 µM",40.3%
same,"viability, T/C","second compound 0.1 µM, first compound 3 µM",19.5%
same,"viability, T/C","second compound 0.316 µM, first compound 0.00949 µM",90%
same,"viability, T/C","second compound 0.316 µM, first compound 0.03 µM",76.5%
same,"viability, T/C","second compound 0.316 µM, first compound 0.0949 µM",61.1%
same,"viability, T/C","second compound 0.316 µM, first compound 0.3 µM",64%
same,"viability, T/C","second compound 0.316 µM, first compound 0.949 µM",41%
same,"viability, T/C","second compound 0.316 µM, first compound 3 µM",31%
same,"viability, T/C","second compound 1 µM, first compound 0.00949 µM",96.6%
same,"viability, T/C","second compound 1 µM, first compound 0.03 µM",73.4%
same,"viability, T/C","second compound 1 µM, first compound 0.0949 µM",53%
same,"viability, T/C","second compound 1 µM, first compound 0.3 µM",51.5%
same,"viability, T/C","second compound 1 µM, first compound 0.949 µM",51.7%
same,"viability, T/C","second compound 1 µM, first compound 3 µM",22.4%
same,"viability, T/C","second compound 3.16 µM, first compound 0.00949 µM",76.8%
same,"viability, T/C","second compound 3.16 µM, first compound 0.03 µM",76.2%
same,"viability, T/C","second compound 3.16 µM, first compound 0.0949 µM",64.7%
same,"viability, T/C","second compound 3.16 µM, first compound 0.3 µM",48.9%
same,"viability, T/C","second compound 3.16 µM, first compound 0.949 µM",40%
same,"viability, T/C","second compound 3.16 µM, first compound 3 µM",37.1%
same,"viability, T/C","second compound 10 µM, first compound 0.00949 µM",74.6%
same,"viability, T/C","second compound 10 µM, first compound 0.03 µM",52.1%
same,"viability, T/C","second compound 10 µM, first compound 0.0949 µM",72.8%
same,"viability, T/C","second compound 10 µM, first compound 0.3 µM",50%
same,"viability, T/C","second compound 10 µM, first compound 0.949 µM",43.4%
same,"viability, T/C","second compound 10 µM, first compound 3 µM",25.3%
